Source: ChEMBL document CHEMBL6153167, “Development of the Pyrido[2,3-d]pyrimidin-7(8H)-one Scaffold toward Potent and Selective NUAK1 Inhibitors” (ACS Med Chem Lett, 2025)

Experiments:
[1] = Selectivity ratio of IC50 for inhibition of MARK3 (unknown origin) to IC50 for inhibition of NUAK1 (unknown origin)
[2] = Protein binding in mouse plasma assessed as fraction unbound at 10 uM incubated for 6 hrs with rotation by dialysis based LC-MS/MS analysis; format: ADME, cell-free
[3] = Unbound brain-to-plasma concentration ratio (Kp,uu, brain) in ICR mouse at 2.5 mg/kg, iv and measured upto 6 hrs by LC-MS/MS analysis; format: ADME, organism-based; conditions: read-out: K(p,uu,brain)

Ratio IC50 [1]	fraction unbound at 6 h, 10 µM [2]	Kp uu at 6 h [3]	SMILES
2290			CC(C)N1CCN(c2ccc(Nc3ncc4ccn(CC5CCOC(C)(C)C5)c4n3)cc2)CC1 (stereo not given)
> 11			Cc1cc(=O)n(C2CCCC2)c2nc(Nc3ccc(N4CCNCC4)cc3)ncc12
	0.006	0.036	CN1CCN(c2ccc(Nc3ncc4cc(C#N)c(=O)n(C5CCCC5)c4n3)cc2)CC1 [NARAZACICLIB]

SMILES	Ratio IC50 [1]	fraction unbound at 6 h, 10 µM [2]	Kp uu at 6 h [3]
CN1C2CC1CN(c1ccc(Nc3ncc4ccn(CC5CCOCC5)c4n3)cc1)C2	2000		
